This is an account of results in ChEMBL document CHEMBL3352029, “Ring fusion strategy for the synthesis of anthra[2,3-d]oxazole-2-thione-5,10-dione homologues as DNA topoisomerase inhibitors and as antitumor agents” (Eur J Med Chem, 2014).

For one assay, the system named is HOP-62. Put plainly: Cytotoxicity against human HOP62 cells assessed as cell growth level at 10 uM after 48 hrs by sulforhodamine B assay. It is filed as functional. (In general: In SRB staining, fixed cells bind dye roughly in proportion to their protein.)
In the next assay the test system is NCI-H522. Put plainly: Cytotoxicity against human NCI-H522 cells assessed as cell growth level at 10 uM after 48 hrs by sulforhodamine B assay. Format: functional.
Another assay has as its system COLO 205. The experiment in a line: Cytotoxicity against human COLO205 cells assessed as cell growth level at 10 uM after 48 hrs by sulforhodamine B assay. Format: functional.
Assay [1] is described as follows: Cytotoxicity against human HCT116 cells assessed as cell growth level at 10 uM after 48 hrs by sulforhodamine B assay. It is filed as functional, HCT-116.
Assay [2] can be described thus: Cytotoxicity against human HCT15 cells assessed as cell growth level at 10 uM after 48 hrs by sulforhodamine B assay. It is filed as functional, HCT-15.
For another assay, the system named is HT-29. The experiment in a line: Cytotoxicity against human HT-29 cells assessed as cell growth level at 10 uM after 48 hrs by sulforhodamine B assay. It is filed as functional.
For another assay, the system named is KM12. The experiment in a line: Cytotoxicity against human KM12 cells assessed as cell growth level at 10 uM after 48 hrs by sulforhodamine B assay. Format: functional.
The next assay deals with SK-MEL-2. The experiment in a line: Cytotoxicity against human SK-MEL-2 cells assessed as cell growth level at 10 uM after 48 hrs by sulforhodamine B assay. Format: functional.
Assay [3] is described as follows: Cytotoxicity against human UACC62 cells assessed as cell growth level at 10 uM after 48 hrs by sulforhodamine B assay. Format: functional, UACC-62.
The nature of assay [4]: Cytotoxicity against human OVCAR4 cells assessed as cell growth level at 10 uM after 48 hrs by sulforhodamine B assay. It is filed as functional, OVCAR-4.
Assay [5] in a line: Cytotoxicity against human NCI-ADR-RES cells assessed as cell growth level at 10 uM after 48 hrs by sulforhodamine B assay. It is filed as functional.
A further assay relates to A498. Put plainly: Cytotoxicity against human A498 cells assessed as cell growth level at 10 uM after 48 hrs by sulforhodamine B assay. Format: functional.
Assay [6] is described as follows: Cytotoxicity against human PC3 cells assessed as cell growth level at 10 uM after 48 hrs by sulforhodamine B assay. Format: functional, PC-3.
The nature of assay [7]: Cytotoxicity against human Hs 578T cells assessed as cell growth level at 10 uM after 48 hrs by sulforhodamine B assay. Format: functional.
Assay [8] concerns the target T1, DNA topoisomerase 1 (Homo sapiens) (UniProt P11387).
T1 sequence (whole entry): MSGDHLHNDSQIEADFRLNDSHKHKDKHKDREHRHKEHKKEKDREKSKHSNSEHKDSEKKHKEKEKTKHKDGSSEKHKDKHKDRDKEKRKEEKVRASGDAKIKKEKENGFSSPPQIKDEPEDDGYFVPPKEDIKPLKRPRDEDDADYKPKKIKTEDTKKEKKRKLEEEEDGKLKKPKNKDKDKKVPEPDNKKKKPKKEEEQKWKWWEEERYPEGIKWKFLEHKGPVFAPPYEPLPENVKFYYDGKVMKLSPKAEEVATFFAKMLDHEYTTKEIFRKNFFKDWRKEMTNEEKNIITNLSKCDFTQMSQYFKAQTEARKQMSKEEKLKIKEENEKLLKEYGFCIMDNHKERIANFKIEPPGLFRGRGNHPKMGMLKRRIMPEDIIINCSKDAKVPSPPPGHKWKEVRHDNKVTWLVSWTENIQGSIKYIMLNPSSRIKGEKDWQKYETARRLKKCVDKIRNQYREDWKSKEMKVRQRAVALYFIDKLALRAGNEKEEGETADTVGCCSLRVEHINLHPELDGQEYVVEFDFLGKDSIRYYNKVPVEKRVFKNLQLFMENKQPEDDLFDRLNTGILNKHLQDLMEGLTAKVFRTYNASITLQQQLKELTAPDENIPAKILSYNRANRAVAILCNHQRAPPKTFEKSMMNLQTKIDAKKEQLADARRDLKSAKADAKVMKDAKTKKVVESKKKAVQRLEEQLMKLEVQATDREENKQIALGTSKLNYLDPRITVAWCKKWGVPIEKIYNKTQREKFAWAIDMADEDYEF
The experiment in a line: Inhibition of human recombinant DNA topoisomerase 1 assessed as reduction in relaxation of supercoiled pHOT DNA at 25 to 50 uM incubated for 45 mins by ethidium bromide staining based gel electrophoresis.

The target in assay [9] is T1, DNA topoisomerase 1 (Homo sapiens). Put plainly: Inhibition of human recombinant DNA topoisomerase 1 assessed as reduction in relaxation of supercoiled pHOT DNA at 6.25 to 25 uM incubated for 45 mins by ethidium bromide staining based gel electrophoresis.

Activity calls are given as the source filed them. The rule behind the calls is not given here.

`CCSc1nc2cc3c(cc2o1)C(=O)c1ccccc1C3=O`: the Activity in the assay on HOP-62 is listed as 75.13%; in the assay with NCI-H522, 80.08%; with COLO 205, 98.08%; in assay [1], 95.99%; in assay [2], 96.65%; with HT-29, 89.08%. Also, the Activity in the assay with KM12 is given as 101.43%; with SK-MEL-2 it was 96.71%; in assay [3] it was 89.01%; in assay [4], 94.25%; in assay [5], 95.82%; in the assay with A498, 80.69%. For the same molecule, the values for the Activity in [6] and in [7] were 84.23% and 81.15%, respectively.
On to `CN(C)CCCSc1nc2cc3c(cc2o1)C(=O)c1ccccc1C3=O`, for which, in assay [8], the inhibition result is “Active”. Also, the inhibition entry in assay [9] is “Dose-dependent effect”. The Activity with HOP-62 was found to be 85.62%; in the assay with NCI-H522, 70.64%; with COLO 205, 59.49%; in assay [1] it was 59.24%; in assay [2] it was 68.98%; with HT-29 it was 64.03%. Besides, the Activity in the assay on KM12 is 82.13%; in the assay on SK-MEL-2 it was 92.13%; in assay [3] it was 86%; in assay [4], 109.08%; in [5], 90.68%; with A498, 72.09%. Further, the Activity in assay [6] was found to be 85.96%; in assay [7] it was 91.54%.
In the case of `O=C1c2ccccc2C(=O)c2cc3oc(SCc4ccc(F)cc4)nc3cc21`, the Activity in the assay on HOP-62 was 89.39%; in the assay on NCI-H522 it was 80.08%; with COLO 205, 103.52%; in assay [1], 88.61%; in [2] it was 94.53%; in the assay with HT-29, 91.18%. Further, the Activity in the assay on KM12 is 104.72%; with SK-MEL-2, 86.04%; in assay [3], 89.94%; in [4] it was 74.06%; in assay [5], 91.27%; with A498 it was 94.5%. Also, the Activity in [6] came out at 88.52%; in assay [7], 95.47%.
